Laboratory results taken from patent publication US20230321246A1, “HIGH-STRENGTH ORAL TAXANE COMPOSITIONS AND METHODS” (ATHENEX HK INNOVATIVE LIMITED, priority 2017, published 2023).

Experiments:
in vivo [1] = conditions: male, beagle, dog, iv, 2 mg/kg
in vivo [2] = conditions: male, beagle, dog, iv, 2 mg/kg; remark: listed apart in the source

AUC(0-inf) (in vivo [1]): 1.95 µg·h/mL
AUC(0-t) (in vivo [1]): 1.84 µg·h/mL
Cmax (in vivo [1]): 1.69 µg/mL
MRT (in vivo [1]): 3.67 h
Tmax (in vivo [1]): 1 h
Vd (in vivo [1]): 6.59 L/kg
clearance (in vivo [1]): 1.16 L/h/kg
AUC(0-inf) (in vivo [2]): 0.768 µg·h/mL
AUC(0-t) (in vivo [2]): 0.701 µg·h/mL
Cmax (in vivo [2]): 0.811 µg/mL
MRT last (in vivo [2]): 5.26 h
Tmax (in vivo [2]): 0 h
Vd (in vivo [2]): 2.1 L/kg
clearance (in vivo [2]): 2.66 L/h/kg
half-life (in vivo [2]): 7.57 h
Structure (SMILES): CC(=O)O[C@H]1C(=O)[C@@]2(C)[C@H]([C@H](OC(=O)c3ccccc3)[C@]3(O)C[C@H](OC(=O)[C@H](O)[C@@H](NC(=O)c4ccccc4)c4ccccc4)C(C)=C1C3(C)C)[C@]1(OC(C)=O)CO[C@@H]1C[C@@H]2O [Paclitaxel, paclitaxel]
